# According to US20170056351A1, “COMPOSITION FOR INDUCING TUMOR IMMUNITY” (UNIVERSITY OF OCCUPATIONAL AND ENVIRONMENTAL HEALTH, JAPAN, priority 2014, published 2017):
# Columns and labels:
# [1] = tested on: U251 cells; assay: Intracellular level of 5-ALA-induced PpIX by flow cytometric analysis, U251; assay type: cell-based, human; conditions: average±SE
# Procedure: (§1) Two types of rat glioma cell lines (9L and C6) and human glioma cell lines (U251 and T98G) were used. Before use, 9L and T98G were cultured in RPMI-1640 at 37° C. for several days, whereas C6 and U251 were cultured in 10% FBS-added Dulbecco's modified Eagle's medium (DMEM) at 37° C. for several days. These cell lines were maintained at 37° C. in 5% CO2 in a humidified incubator. The cells were subcultured at an exponential growth phase thereof, using 0.05% trypsin solution containing 0.5 mM ethylenediamine tetraacetate. 70% confluent cells were used in the subsequent experiments. 5-ALA was dissolved in RPMI-1640 (9L and T98G), or in 10% FBS-added DMEM (C6 and U251), to a final concentration of 1 mM.
# (§2) The cells were seeded on a 100-mm culture dish, and were then cultured. The cells were incubated in a complete medium containing 1 mM 5-ALA for 4 hours, and were then washed with PBS. The resulting cells were peeled from the bottom layer by a trypsin treatment, and were then recovered by centrifugation (400×g, 3 min, and 4° C.). Immediately after the recovery, the cells were re-suspended in cold PBS/FBS, and were then analyzed using a flow cytometer (EC800; Sony Biotechnology, Tokyo, Japan). Generally, 30,000 cells contained in each sample were evaluated. Using 488-nm argon ion laser, fluorescence was excited from intracellular PpIX, and the fluorescence was then detected using a 640/30 nm band-pass filter. In order to prevent photoactivation of 5-ALA-induced PpIX, all procedures were carried out in a dark room. The flow cytometric data were analyzed using FlowJo (Tree Star Inc., Ashland, Oreg., USA). The mean fluorescence intensity (MFI) of PpIX fluorescence in the 5-ALA-treated cells, with respect to that of 5-ALA-not-treated cells, was calculated for each cell line.
# [2] = tested on: 9L cells; assay: Intracellular localization of ROS 12 hours after ionizing radiation (DCFD, confocal laser scanning microscope), 9L; assay type: cell-based, rat; conditions: pre-treatment with 1 mM 5-ALA 4 hours before 10 Gy, 12 hours after irradiation, vs no 5-ALA
# Procedure: Intracellular ROS production was detected by our method using DCFD and a confocal laser scanning microscope (LMS5 Pascal; Carl Zeiss, Jena, Germany) (Yamamoto J, Ogura S, Tanaka T, et al: Radiosensitizing effect of 5-aminolevulinic acid-induced protoporphyrin IX in glioma cells in vitro. Oncol Rep 27: 1748-1752, 2012.). Briefly, the cells were seeded in a fresh medium containing 1 mM 5-ALA in a 35-mm glass-bottom culture dish (Asahi Techno Glass, Tokyo, Japan), and were then incubated at 37° C. for 4 hours in a dark room. Thereafter, the cells were washed with PBS, and were then exposed to an ionizing radiation of 10 Gy. Twelve hours after the ionizing irradiation, the cells were washed with PBS twice, and were then incubated together with 10 μM DCFD for 15 minutes. Thereafter, the cells were washed with PBS twice, and immediately after the washing, the resulting cells were observed. DCFD fluorescence (excitation: 488 nm; radiation: 505-530 nm band-pass filter) was imaged on a confocal laser scanning microscope. All procedures were carried out in a dark room.
# [3] = living body; cited from earlier work
# [4] = tested on: 9L cells; assay: Intracellular level of 5-ALA-induced PpIX by flow cytometric analysis, 9L; assay type: cell-based, rat; conditions: average±SE
# Procedure: as §1, §2
# [5] = tested on: 9L cells; assay: Cellular ROS levels after ionizing irradiation (DCFD, flow cytometry), 9L; assay type: cell-based, rat; conditions: for relative MFI of DCF fluorescence 12 hours after ionizing irradiation, timing study: 10 Gy
# Procedure: Intracellular ROS production was evaluated using the oxidant-sensitive fluorescence probe DCFD and flow cytometry (Yamamori T, Yasui H, Yamazumi M, et al: Ionizing radiation induces mitochondrial reactive oxygen species production accompanied by upregulation of mitochondrial electron transport chain function and mitochondrial content under control of the cell cycle checkpoint. Free Radic Biol Med 53: 260-270, 2012.). The cells were seeded on a 100-mm culture dish, and using an X-ray irradiation apparatus (MBR-1520R; Hitachi, Tokyo, Japan) (0.67 Gy/min), the cells were then irradiated with a radiation of 10 Gy in a dark room. During the ionizing irradiation, the culture dish was maintained at a room temperature in a dark container. In the case of a 5-ALA and ionizing irradiation group (RT,12 h+ALA), the cells were treated with 1 mM 5-ALA for 4 hours, then, immediately after the treatment, the cells were irradiated with ionizing radiation, and were then incubated together with 10 μM DCFD at 37° C. for 15 minutes, followed by washing with PBS twice. Thereafter, as described above, the cells were analyzed using a flow cytometer (excitation: 488 nm; radiation: 525/50 nm band-pass filter). Control cells were not exposed to ionizing radiation or 5-ALA. In a 5-ALA group, the cells were treated with 1 mM 5-ALA for 4 hours, but were not exposed to ionizing radiation. The control cells and the cells of the 5-ALA group were treated with DCFD in the same manner as described above. In order to prevent the photoactivation of 5-ALA-induced PpIX and DCFD, all procedures were carried out in a dark room. The flow cytometric data were analyzed using FlowJo (Tree Star Inc., Ashland, Oreg., USA). The MFI of the DCF fluorescence in the cells, with respect to that in control cells, was calculated for each cell line.
# The cells were seeded on a 100-mm culture dish, and were then exposed to an ionizing radiation of 10 Gy. The incubation time (4 h) of 1 mM 5-ALA was the same among individual groups, and three types of 5-ALA treatment times were initiated: i) 5-ALA treatment immediately before ionizing irradiation [RT+ALA (pre) group]; ii) 5-ALA treatment immediately after ionizing irradiation [RT+ALA (4 h) group]; and iii) 5-ALA treatment 8 hours after ionizing irradiation [RT+ALA (12 h) group]. In each group, twelve hours after the ionizing irradiation, the cells were incubated together with 10 μM DCFD at 37° C. for 15 minutes, and were then washed with PBS twice. Immediately after the washing, as described above, DCF fluorescence was analyzed using a flow cytometer. Control cells were not treated with ionizing radiation or 5-ALA. In a group involving only ionizing irradiation (RT), the cells were exposed to ionizing radiation, without performing 5-ALA treatments, and were then treated with DCFD twelve hours after the exposure to the ionizing radiation in the same manner as described above. All procedures were carried out in a dark room. The flow cytometric data were analyzed using FlowJo software. The MFI of the DCF fluorescence in the cells, with respect to that in control cells, was calculated for each cell line.
# [6] = tested on: T98G cells; assay: Intracellular level of 5-ALA-induced PpIX by flow cytometric analysis, T98G; assay type: cell-based, human; conditions: 1 mM 5-ALA for 4 hours, relative to 5-ALA-not-treated cells, average±SE
# Procedure: as §1, with “5-ALA was dissolved in RPMI-1640 (9L and T98G), or in 10% FBS-added DMEM (C6 and U251), to a final concentration of 1 mM.” left out
# as §2, with “The cells were incubated in a complete medium containing 1 mM 5-ALA for 4 hours, and were then washed with PBS. The resulting cells were peeled from the bottom layer by a trypsin treatment, and were then recovered by centrifugation (400×g, 3 min, and 4° C.).” left out, “In order to prevent photoactivation of 5-ALA-induced PpIX, all procedures were carried out in a dark room.” left out
# [7] = tested on: C6 cells; assay: Intracellular level of 5-ALA-induced PpIX by flow cytometric analysis, C6; assay type: cell-based, rat; conditions: 1 mM 5-ALA for 4 hours, relative to 5-ALA-not-treated cells, average±SE
# Procedure: as §1, with “5-ALA was dissolved in RPMI-1640 (9L and T98G), or in 10% FBS-added DMEM (C6 and U251), to a final concentration of 1 mM.” left out
# as §2, with “The cells were incubated in a complete medium containing 1 mM 5-ALA for 4 hours, and were then washed with PBS. The resulting cells were peeled from the bottom layer by a trypsin treatment, and were then recovered by centrifugation (400×g, 3 min, and 4° C.).” left out, “In order to prevent photoactivation of 5-ALA-induced PpIX, all procedures were carried out in a dark room.” left out
# [8] = 1 mM 5-ALA for 4 hours, relative to 5-ALA-not-treated cells
# [9] = 4 hours after ionizing irradiation
# [10] = 12 hours after ionizing irradiation
# [11] = 24 hours after ionizing irradiation
smiles,measurement,setting,value
"NCC(=O)CCC(=O)O [ALA, 5-aminolevulinic acid]",relative MFI of PpIX fluorescence,[1]; [8],37.6±0.12
same,relative MFI of PpIX fluorescence after ionizing irradiation,[1]; [9],41.6±0.20
same,relative MFI of PpIX fluorescence after ionizing irradiation,[1]; [10],44.2±3.67
same,relative MFI of PpIX fluorescence after ionizing irradiation,[1]; [11],51.1±3.76
same,DCF fluorescence in the cytoplasm (confocal),[2],apparently increased
same,time until ALA is metabolized and discharged from the body,[3],≤ 48 h
same,relative MFI of PpIX fluorescence,[4]; [8],21.5±0.12
same,relative MFI of PpIX fluorescence after ionizing irradiation,[4]; [9],15.2±0.15
same,relative MFI of PpIX fluorescence after ionizing irradiation,[4]; [10],15.9±0.73
same,relative MFI of PpIX fluorescence after ionizing irradiation,[4]; [11],13.4±2.43
same,relative MFI of DCF fluorescence (cellular ROS),"[5]; 1 mM 5-ALA 4 hours, without ionizing irradiation, relative to control cells, average±SE",1.19±0.07
same,"relative MFI of DCF fluorescence 12 hours after ionizing irradiation, timing study","[5]; 5-ALA treatment 8 hours after ionizing irradiation, RT+ALA (12 h) group",1.58±0.11
same,"relative MFI of DCF fluorescence 12 hours after ionizing irradiation, timing study","[5]; 5-ALA treatment immediately after ionizing irradiation, RT+ALA (4 h) group",1.57±0.05
same,"relative MFI of DCF fluorescence 12 hours after ionizing irradiation, timing study","[5]; 5-ALA treatment immediately before ionizing irradiation, RT+ALA (pre) group",1.93±0.10
same,relative MFI of DCF fluorescence (cellular ROS),"[5]; 12 hours after 10 Gy ionizing irradiation with 5-ALA pre-treatment (1 mM, 4 hours), p=0.009 vs RT 12 h",1.91±0.19
same,relative MFI of PpIX fluorescence,[6],15.3±0.89
same,relative MFI of PpIX fluorescence,[7],20.2±0.56
